For the experiment, the target named is T1, alpha-synuclein (αsyn) pre-formed fibrils (Homo sapiens, UniProt P37840).
T1 construct: gene SNCA; Full-length wildtype human αsyn, pre-formed amyloid fibrils (PFFs)
Kind of experiment: fluorescence titration of h-FTAA with […] recombinant fibrils, simulated binding curve; lifetime imaging (FLIM).

Some results are limits rather than exact numbers.

A word on the Kd: it is the free concentration of one partner at which half of the binding sites on the other are occupied at equilibrium, for simple one-to-one binding. With `O=C(O)Cc1cc(-c2ccc(-c3ccc(C(=O)O)s3)s2)sc1-c1ccc(-c2sc(-c3ccc(-c4ccc(C(=O)O)s4)s3)cc2CC(=O)O)s1` [h-FTAA], the Kd is < 100 nM.

Source of the values: publication PMC11594916, “In Vitro Cell Model Investigation of Alpha-Synuclein Aggregate Morphology Using Spectroscopic Imaging” (International Journal of Molecular Sciences, 2024).
